ChEMBL document CHEMBL1212888, “NMR spectroscopy and computational analysis of interaction between Serratia marcescens chitinase B and a dipeptide derived from natural-product cyclopentapeptide chitinase inhibitor argifin” (Bioorg Med Chem, 2010)

Molecular target: T1, Chitinase B (Serratia marcescens, UniProt P11797)
T1 sequence (P11797 whole entry): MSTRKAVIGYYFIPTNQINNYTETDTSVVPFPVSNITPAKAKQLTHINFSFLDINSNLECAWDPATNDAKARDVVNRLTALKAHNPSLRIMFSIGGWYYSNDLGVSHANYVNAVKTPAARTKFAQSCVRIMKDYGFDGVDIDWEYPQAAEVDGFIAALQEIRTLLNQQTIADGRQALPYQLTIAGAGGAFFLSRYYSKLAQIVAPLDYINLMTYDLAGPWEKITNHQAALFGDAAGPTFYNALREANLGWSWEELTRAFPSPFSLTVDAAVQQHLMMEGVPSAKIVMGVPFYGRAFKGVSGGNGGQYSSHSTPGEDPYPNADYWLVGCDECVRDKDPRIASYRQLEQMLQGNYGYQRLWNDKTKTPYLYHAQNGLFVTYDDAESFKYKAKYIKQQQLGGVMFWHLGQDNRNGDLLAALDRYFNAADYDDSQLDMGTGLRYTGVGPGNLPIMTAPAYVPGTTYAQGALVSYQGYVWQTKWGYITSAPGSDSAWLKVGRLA
Assay: Inhibition of Serratia marcescens chitinase B

## CNC(=O)NC(=N)NCCC[C@@H]1NC(=O)[C@@H](C)NC(=O)C[C@@H](C(=O)O)NC(=O)C[C@@H](C(=O)O)NC(=O)[C@H](Cc2ccccc2)N(C)C1=O [ARGIFIN]
  Kd: 33 µM
